{"source": "ChEMBL document CHEMBL4665641", "about": "“Lead optimization and efficacy evaluation of quinazoline-based BET family inhibitors for potential treatment of cancer and inflammatory diseases” (Bioorg Med Chem Lett, 2019)", "key": {"[1]": {"assay": "Cmax in CD-1 mouse at 10 mg/kg, po", "assay_type": "ADME, organism-based", "set-up": "route oral, dose 10 mg/kg", "conditions": "in vivo"}, "[2]": {"biological_target": "T1, Bromodomain-containing protein 4 (Homo sapiens, UniProt O60885)", "assay": "Inhibition of human full-length recombinant N-terminal His-tagged BRD4 (2 to 1362 residues) expressed in Sf9 cells using histone H4 peptide containing acetylated lysine residues as substrate preincubated with enzyme for 30 mins followed by incubation with substrate for 30 mins by Alphascreen assay […]"}, "[3]": {"biological_target": "T1, Bromodomain-containing protein 4", "assay": "Competitive binding affinity to human partial length BRD4 (BD1,2) (N44 to E460 residues) expressed in bacterial expression system by BROMOscan assay"}, "MV4-11": {"tested_on": "MV4-11", "assay": "Cytotoxicity against human MV4-11 cells assessed as inhibition of cell viability", "assay_type": "functional, cell-based"}, "[4]": {"assay": "Plasma clearance in CD-1 mouse at 2 mg/kg, iv", "assay_type": "ADME, organism-based"}, "[5]": {"assay": "Oral bioavailability in CD-1 mouse at 10 mg/kg", "assay_type": "ADME, organism-based", "conditions": "CD-1, mouse, in vivo"}, "[6]": {"assay": "Half life in CD-1 mouse at 2 mg/kg, iv", "assay_type": "ADME, organism-based", "conditions": "in vivo"}, "[7]": {"assay": "Half life in CD-1 mouse at 10 mg/kg, po", "assay_type": "ADME, organism-based", "conditions": "in vivo"}, "[8]": {"assay": "Cmax in CD-1 mouse at 2 mg/kg, iv measured after 5 mins", "assay_type": "ADME, organism-based", "set-up": "route intravenous, dose 2 mg/kg", "conditions": "CD-1, mouse, in vivo, read-out: Cmax"}, "[9]": {"assay": "AUC(0 to infinity) in CD-1 mouse at 2 mg/kg, iv", "assay_type": "ADME, organism-based", "set-up": "time infinity, route intravenous, dose 2 mg/kg", "conditions": "in vivo; for AUC(0-inf): CD-1, mouse"}, "[10]": {"assay": "AUC(0 to infinity) in CD-1 mouse at 10 mg/kg, po", "assay_type": "ADME, organism-based", "set-up": "route oral, time infinity, dose 10 mg/kg", "conditions": "CD-1, mouse, in vivo"}, "[11]": {"assay": "Volume of distribution at steady state in CD-1 mouse at 2 mg/kg, iv", "assay_type": "ADME, organism-based", "conditions": "in vivo, read-out: Vdss"}, "[12]": {"assay": "Stability in mouse liver microsomes assessed as half life", "assay_type": "ADME, Microsome"}}}
{"smiles": "Cc1noc(C)c1-c1ccc2nc(-c3cnn(CCO)c3)nc(N3CCOCC3c3ccccc3)c2c1", "note": "(stereo not drawn)", "values": [{"measurement": "Cmax", "setting": "[1]; mouse", "value": 934, "unit": "ng/mL"}, {"measurement": "IC50", "setting": "[2]", "value": 72, "unit": "nM"}]}
{"smiles": "Cn1cc(-c2ccc3nc(-c4cnn(CC(C)(C)O)c4)nc(N4CCOC[C@@H]4c4ccc(Cl)cc4)c3c2)ccc1=O", "values": [{"measurement": "Kd", "setting": "[3]", "value": 119, "unit": "nM"}, {"measurement": "IC50", "setting": "MV4-11", "value": 1140, "unit": "nM"}]}
{"smiles": "Cc1noc(C)c1-c1ccc2nc(-c3cnn(CCO)c3)nc(N3CCOC[C@@H]3c3ccccc3)c2c1", "values": [{"measurement": "Kd", "setting": "[3]", "value": 99, "unit": "nM"}]}
{"smiles": "Cn1cc(-c2ccc3nc(-c4cnn(CC(C)(C)O)c4)nc(N4CCOC[C@@H]4C4CCCCC4)c3c2)ccc1=O", "values": [{"measurement": "Kd", "setting": "[3]", "value": 25, "unit": "nM"}, {"measurement": "IC50", "setting": "MV4-11", "value": 530, "unit": "nM"}]}
{"smiles": "Cc1noc(C)c1-c1ccc2nc(-c3cnn(CC(C)(C)O)c3)nc(N3CCN(S(C)(=O)=O)C[C@@H]3c3ccccc3)c2c1", "values": [{"measurement": "clearance", "setting": "[4]", "value": 6.9, "unit": "mL/min/kg"}, {"measurement": "bioavailability", "setting": "[5]", "value": 86, "unit": "%"}, {"measurement": "Kd", "setting": "[3]", "value": 68, "unit": "nM"}, {"measurement": "IC50", "setting": "MV4-11", "value": 1130, "unit": "nM"}, {"measurement": "half-life", "setting": "[6]", "value": 1.4, "unit": "h"}, {"measurement": "half-life", "setting": "[7]", "value": 1.7, "unit": "h"}, {"measurement": "Cmax", "setting": "[8]", "value": 2580, "unit": "ng/mL"}, {"measurement": "Cmax", "setting": "[1]; CD-1, mouse, read-out: Cmax", "value": 2670, "unit": "ng/mL"}, {"measurement": "AUC(0-inf)", "setting": "[9]", "value": 4950, "unit": "ng·h/mL"}, {"measurement": "AUC(0-inf)", "setting": "[10]", "value": 21200, "unit": "ng·h/mL"}, {"measurement": "Vd", "setting": "[11]", "value": 0.82, "unit": "L/kg"}, {"measurement": "IC50", "setting": "[2]", "value": 90, "unit": "nM"}]}
{"smiles": "Cn1cc(-c2ccc3nc(-c4cnn(CC(C)(C)O)c4)nc(N4CCOC[C@@H]4c4cccs4)c3c2)ccc1=O", "values": [{"measurement": "clearance", "setting": "[4]", "value": 6.4, "unit": "mL/min/kg"}, {"measurement": "bioavailability", "setting": "[5]", "value": 83, "unit": "%"}, {"measurement": "Kd", "setting": "[3]", "value": 300, "unit": "nM"}, {"measurement": "IC50", "setting": "MV4-11", "value": 980, "unit": "nM"}, {"measurement": "half-life", "setting": "[6]", "value": 2.3, "unit": "h"}, {"measurement": "half-life", "setting": "[7]", "value": 1.6, "unit": "h"}, {"measurement": "Cmax", "setting": "[8]", "value": 2040, "unit": "ng/mL"}, {"measurement": "Cmax", "setting": "[1]; CD-1, mouse, read-out: Cmax", "value": 2090, "unit": "ng/mL"}, {"measurement": "AUC(0-inf)", "setting": "[9]", "value": 5550, "unit": "ng·h/mL"}, {"measurement": "AUC(0-inf)", "setting": "[10]", "value": 22900, "unit": "ng·h/mL"}, {"measurement": "Vd", "setting": "[11]", "value": 1.08, "unit": "L/kg"}, {"measurement": "IC50", "setting": "[2]", "value": 165, "unit": "nM"}]}
{"smiles": "Cc1cc(-c2ccc3nc(-c4cnn(CC(C)(C)O)c4)nc(N4CCOC[C@@H]4C4CC4)c3c2)cn(C)c1=O", "values": [{"measurement": "Kd", "setting": "[3]", "value": 70, "unit": "nM"}]}
{"smiles": "Cc1noc(C)c1-c1ccc2nc(N3CCC4(CCN(C)C4=O)CC3)nc(N3CCOC[C@@H]3c3ccccc3)c2c1", "values": [{"measurement": "Kd", "setting": "[3]", "value": 110, "unit": "nM"}, {"measurement": "IC50", "setting": "MV4-11", "value": 1360, "unit": "nM"}]}
{"smiles": "Cn1cc(-c2ccc3nc(-c4cnn(CC(C)(C)O)c4)nc(N4CCOC[C@@H]4c4ccccc4)c3c2)ccc1=O", "values": [{"measurement": "clearance", "setting": "[4]", "value": 12.3, "unit": "mL/min/kg"}, {"measurement": "bioavailability", "setting": "[5]", "value": 118, "unit": "%"}, {"measurement": "Kd", "setting": "[3]", "value": 69, "unit": "nM"}, {"measurement": "IC50", "setting": "MV4-11", "value": 740, "unit": "nM"}, {"measurement": "half-life", "setting": "[6]", "value": 2.2, "unit": "h"}, {"measurement": "half-life", "setting": "[7]", "value": 1.5, "unit": "h"}, {"measurement": "Cmax", "setting": "[8]", "value": 1860, "unit": "ng/mL"}, {"measurement": "Cmax", "setting": "[1]; CD-1, mouse, read-out: Cmax", "value": 1980, "unit": "ng/mL"}, {"measurement": "AUC(0-inf)", "setting": "[9]", "value": 2730, "unit": "ng·h/mL"}, {"measurement": "AUC(0-inf)", "setting": "[10]", "value": 16100, "unit": "ng·h/mL"}, {"measurement": "Vd", "setting": "[11]", "value": 1.89, "unit": "L/kg"}, {"measurement": "IC50", "setting": "[2]", "value": 57, "unit": "nM"}]}
{"smiles": "Cc1noc(C)c1-c1ccc2nc(-c3cnn(CC(C)(C)O)c3)nc(N3CCOC[C@H]3c3ccccc3)c2c1", "values": [{"measurement": "Kd", "setting": "[3]", "value": 260, "unit": "nM"}, {"measurement": "IC50", "setting": "MV4-11", "value": 1730, "unit": "nM"}]}
{"smiles": "CNC(=O)Cn1cc(-c2nc(N3CCOC[C@@H]3c3ccccc3)c3cc(-c4c(C)noc4C)ccc3n2)cn1", "values": [{"measurement": "Kd", "setting": "[3]", "value": 85, "unit": "nM"}, {"measurement": "IC50", "setting": "MV4-11", "value": 1010, "unit": "nM"}]}
{"smiles": "Cc1noc(C)c1-c1ccc2nc(-c3cnn(CC(C)(C)O)c3)nc(N3CCOC[C@@H]3C3CCC3)c2c1", "values": [{"measurement": "Kd", "setting": "[3]", "value": 195, "unit": "nM"}, {"measurement": "IC50", "setting": "MV4-11", "value": 2200, "unit": "nM"}, {"measurement": "t1/2", "setting": "[12]", "value": 0.3, "unit": "h"}]}
{"smiles": "Cc1noc(C)c1-c1ccc2nc(-c3cnn(CC(C)(C)O)c3)nc(N3CCOC[C@@H]3C3CCCCC3)c2c1", "values": [{"measurement": "Kd", "setting": "[3]", "value": 123, "unit": "nM"}, {"measurement": "IC50", "setting": "MV4-11", "value": 1430, "unit": "nM"}, {"measurement": "t1/2", "setting": "[12]", "value": 0.067, "unit": "h"}]}
{"smiles": "Cc1noc(C)c1-c1ccc2nc(N3CCN(CCN(C)C)CC3)nc(N3CCOC[C@H]3c3ccccc3)c2c1", "values": [{"measurement": "IC50", "setting": "MV4-11", "value": 1280, "unit": "nM"}]}
{"smiles": "Cc1noc(C)c1-c1ccc2nc(-c3cnn(CC(C)(C)O)c3)nc(N3CCNC[C@@H]3c3ccccc3)c2c1", "values": [{"measurement": "Kd", "setting": "[3]", "value": 88, "unit": "nM"}, {"measurement": "IC50", "setting": "MV4-11", "value": 590, "unit": "nM"}, {"measurement": "AUC", "setting": "[9]; mouse", "value": 123, "unit": "ng·h/mL"}]}
{"smiles": "Cc1noc(C)c1-c1ccc2nc(-c3cnn(CC(C)(C)O)c3)nc(N3CCOC[C@@H]3c3ccc(F)cc3)c2c1", "values": [{"measurement": "clearance", "setting": "[4]", "value": 5.9, "unit": "mL/min/kg"}, {"measurement": "bioavailability", "setting": "[5]", "value": 90, "unit": "%"}, {"measurement": "Kd", "setting": "[3]", "value": 58, "unit": "nM"}, {"measurement": "IC50", "setting": "MV4-11", "value": 1270, "unit": "nM"}, {"measurement": "half-life", "setting": "[6]", "value": 2.6, "unit": "h"}, {"measurement": "half-life", "setting": "[7]", "value": 2.8, "unit": "h"}, {"measurement": "Cmax", "setting": "[8]", "value": 1590, "unit": "ng/mL"}, {"measurement": "Cmax", "setting": "[1]; CD-1, mouse, read-out: Cmax", "value": 2080, "unit": "ng/mL"}, {"measurement": "AUC(0-inf)", "setting": "[9]", "value": 5790, "unit": "ng·h/mL"}, {"measurement": "AUC(0-inf)", "setting": "[10]", "value": 26100, "unit": "ng·h/mL"}, {"measurement": "Vd", "setting": "[11]", "value": 1.47, "unit": "L/kg"}, {"measurement": "t1/2", "setting": "[12]", "value": 0.867, "unit": "h"}, {"measurement": "IC50", "setting": "[2]", "value": 13, "unit": "nM"}]}
